# Measurements from ChEMBL document CHEMBL5214920, “Emerging impact of triazoles as anti-tubercular agent” (Eur J Med Chem, 2022).
# What was measured:
# [1] = system: Mycobacterium tuberculosis; test: Antitubercular activity against Mycobacterium tuberculosis H37Rv assessed as bacterial growth inhibition by micro broth dilution assay; assay type: functional
# [2] = system: Mycobacterium tuberculosis; test: Antitubercular activity against Mycobacterium tuberculosis H37Rv assessed as bacterial growth inhibition measured after 7 days by broth microdilution assay; assay type: functional; details: 168 h, time 7 day
# [3] = system: Mycobacterium tuberculosis; test: Antitubercular activity against Mycobacterium tuberculosis H37Rv ATCC 27294 assessed as bacterial growth inhibition measured after 48 hrs by broth dilution method; assay type: functional
# [4] = system: Mycobacterium tuberculosis; test: Antitubercular activity against Mycobacterium tuberculosis spec. 192 assessed as bacterial growth inhibition; assay type: functional
# [5] = system: Mycobacterium tuberculosis; test: Antitubercular activity against Mycobacterium tuberculosis spec. 210 assessed as bacterial growth inhibition; assay type: functional
# [6] = system: Mycobacterium tuberculosis; test: Antitubercular activity against Mycobacterium tuberculosis H37Rv ATCC 25618 assessed as bacterial growth inhibition; assay type: functional
# [7] = system: Mycobacterium tuberculosis; test: Antitubercular activity against Mycobacterium tuberculosis H37Rv assessed as bacterial growth inhibition measured after […] by twofold agar dilution method; assay type: functional
# [8] = system: Mycobacterium tuberculosis; test: Antitubercular activity against Mycobacterium tuberculosis H37Rv assessed as bacterial growth inhibition; assay type: functional
# [9] = system: Mycobacterium tuberculosis; test: Antitubercular activity against Mycobacterium tuberculosis H37Rv ATCC 27294 assessed as bacterial growth inhibition by agar dilution method; assay type: functional
# [10] = system: Mycobacterium tuberculosis; test: Antitubercular activity against dormant stage of Mycobacterium tuberculosis H37Ra ATCC 25177 assessed as bacterial growth inhibition by XTT assay; assay type: functional
# [11] = system: Mycobacterium tuberculosis; test: Antitubercular activity against active stage of Mycobacterium tuberculosis H37Ra ATCC 25177 assessed as bacterial growth inhibition by XTT assay; assay type: functional
# [12] = system: Mycobacterium tuberculosis; test: Antitubercular activity against Mycobacterium tuberculosis H37Rv assessed as reduction in relative light units at 5 ug/ml incubated for 4 hrs followed by addition of D-luciferin by luciferase based luminometer analysis relative to control; assay type: functional; set-up: scale not given: the % may be the effect or the level left; details: dose 5 µg/ml
# [13] = system: Mycobacterium tuberculosis; test: Antitubercular activity against Mycobacterium tuberculosis H37Rv assessed as reduction in relative light units at 25 ug/ml incubated for 4 hrs followed by addition of D-luciferin by luciferase based luminometer analysis relative to control; assay type: functional; set-up: scale not given: the % may be the effect or the level left; details: dose 25 µg/ml
# [14] = system: Mycobacterium tuberculosis; test: Antitubercular activity against Mycobacterium tuberculosis H37Rv assessed as bacterial growth inhibition at 6.25 ug/ml measured after 5 to 8 days by radiometric analysis relative to control; assay type: functional; set-up: scale not given: the % may be the effect or the level left; details: dose 6.25 µg/ml; time 5-8 day
# [15] = system: Mycobacterium tuberculosis; test: Antitubercular activity against Mycobacterium tuberculosis H37Rv ATCC 27294 assessed as bacterial growth inhibition; assay type: functional
# [16] = system: Mycobacterium tuberculosis; test: Antitubercular activity against Mycobacterium tuberculosis H37Rv assessed as bacterial growth inhibition by direct susceptibility assay; assay type: functional
# [17] = Cytotoxicity against CHO cells assessed as cell growth inhibition by MTT assay; assay type: toxicity, cell-based, Cricetulus griseus; details: chinese hamster
# [18] = system: Mycobacterium tuberculosis; test: Antitubercular activity against Mycobacterium tuberculosis mc 2 6230 assessed as bacterial growth inhibition; assay type: functional
# [19] = system: Mycobacterium tuberculosis; test: Antitubercular activity against Mycobacterium tuberculosis H37Rv assessed as bacterial growth inhibition measured after 7 days by MABA method; assay type: functional; details: 168 h, time 7 day
# [20] = molecular target: DNA gyrase subunit A/DNA gyrase subunit B (Mycobacterium tuberculosis (strain ATCC 25618 / H37Rv), UniProt P9WG45+P9WG47); test: Inhibition of Mycobacterium tuberculosis DNA gyrase supercoiling activity; assay type: protein-complex assay
# Sequence of DNA gyrase subunit A/DNA gyrase subunit B (P9WG45 whole entry): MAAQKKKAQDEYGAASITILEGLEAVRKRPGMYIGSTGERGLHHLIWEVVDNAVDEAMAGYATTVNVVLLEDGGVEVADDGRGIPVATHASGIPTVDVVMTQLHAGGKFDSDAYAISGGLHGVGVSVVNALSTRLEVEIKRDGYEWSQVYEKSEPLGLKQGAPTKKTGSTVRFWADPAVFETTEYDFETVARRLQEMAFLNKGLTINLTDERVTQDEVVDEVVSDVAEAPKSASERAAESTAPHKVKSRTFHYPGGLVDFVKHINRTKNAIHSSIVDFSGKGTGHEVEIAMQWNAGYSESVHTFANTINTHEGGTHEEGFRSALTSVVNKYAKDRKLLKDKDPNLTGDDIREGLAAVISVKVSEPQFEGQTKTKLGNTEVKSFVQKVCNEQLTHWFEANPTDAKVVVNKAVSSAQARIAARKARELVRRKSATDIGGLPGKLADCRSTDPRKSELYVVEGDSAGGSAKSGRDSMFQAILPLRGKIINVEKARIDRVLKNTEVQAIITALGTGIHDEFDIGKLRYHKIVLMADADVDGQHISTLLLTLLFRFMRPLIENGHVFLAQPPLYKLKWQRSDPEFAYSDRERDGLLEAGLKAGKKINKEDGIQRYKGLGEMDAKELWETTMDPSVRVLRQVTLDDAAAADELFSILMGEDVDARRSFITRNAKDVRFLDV
# Sequence of DNA gyrase subunit A/DNA gyrase subunit B (P9WG47 whole entry): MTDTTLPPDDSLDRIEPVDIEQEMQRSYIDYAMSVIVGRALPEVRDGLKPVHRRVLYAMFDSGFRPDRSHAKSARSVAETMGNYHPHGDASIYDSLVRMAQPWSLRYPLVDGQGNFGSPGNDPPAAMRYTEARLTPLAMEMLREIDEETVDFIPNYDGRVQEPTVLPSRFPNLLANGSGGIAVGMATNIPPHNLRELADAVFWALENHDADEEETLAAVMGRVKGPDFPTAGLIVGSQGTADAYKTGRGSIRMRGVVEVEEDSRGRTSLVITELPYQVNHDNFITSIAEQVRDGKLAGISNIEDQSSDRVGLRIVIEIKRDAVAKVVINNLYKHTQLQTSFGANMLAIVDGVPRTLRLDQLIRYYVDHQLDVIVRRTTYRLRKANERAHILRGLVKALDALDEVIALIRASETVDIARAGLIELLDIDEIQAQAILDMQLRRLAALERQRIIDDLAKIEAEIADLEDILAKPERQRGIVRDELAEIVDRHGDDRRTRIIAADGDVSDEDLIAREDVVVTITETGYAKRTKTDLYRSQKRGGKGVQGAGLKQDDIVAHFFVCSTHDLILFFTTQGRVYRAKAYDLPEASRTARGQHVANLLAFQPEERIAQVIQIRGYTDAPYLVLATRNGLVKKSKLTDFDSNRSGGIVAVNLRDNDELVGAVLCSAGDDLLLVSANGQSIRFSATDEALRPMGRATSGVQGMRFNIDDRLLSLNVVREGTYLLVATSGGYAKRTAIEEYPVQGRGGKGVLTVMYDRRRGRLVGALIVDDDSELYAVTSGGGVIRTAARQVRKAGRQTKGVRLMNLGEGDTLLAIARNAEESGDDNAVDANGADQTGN
# [21] = molecular target: DNA gyrase subunit B (Mycobacterium smegmatis, UniProt P0C559); test: Inhibition of Mycobacterium smegmatis GyrB incubated for 120 mins in presence of ATP by malachite green r staining based assay; set-up: species or system Mycolicibacterium smegmatis
# Sequence of DNA gyrase subunit B (P0C559 whole entry): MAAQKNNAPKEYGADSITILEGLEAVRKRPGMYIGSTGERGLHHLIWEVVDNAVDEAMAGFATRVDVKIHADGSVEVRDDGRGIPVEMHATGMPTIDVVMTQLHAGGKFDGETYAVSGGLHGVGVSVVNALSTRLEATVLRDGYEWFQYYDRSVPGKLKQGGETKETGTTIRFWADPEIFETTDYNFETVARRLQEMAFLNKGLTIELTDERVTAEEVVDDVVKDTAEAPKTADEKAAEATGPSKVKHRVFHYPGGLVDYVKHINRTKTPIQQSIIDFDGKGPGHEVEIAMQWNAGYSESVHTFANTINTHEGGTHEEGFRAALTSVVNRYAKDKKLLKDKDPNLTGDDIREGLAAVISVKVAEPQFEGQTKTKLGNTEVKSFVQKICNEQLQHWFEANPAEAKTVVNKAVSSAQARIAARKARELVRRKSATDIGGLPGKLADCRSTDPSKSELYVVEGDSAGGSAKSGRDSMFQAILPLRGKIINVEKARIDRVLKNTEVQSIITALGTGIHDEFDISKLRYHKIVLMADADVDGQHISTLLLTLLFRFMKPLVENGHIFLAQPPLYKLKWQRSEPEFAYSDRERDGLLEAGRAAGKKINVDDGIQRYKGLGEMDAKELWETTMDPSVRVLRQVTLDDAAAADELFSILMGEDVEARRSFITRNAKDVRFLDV
# [22] = system: Mycobacterium tuberculosis; test: Antitubercular activity against Mycobacterium tuberculosis H37Rv ATCC 27294 assessed as bacterial growth inhibition measured after 10 days by MABA method; assay type: functional; details: H37Rv ATCC 27294, 240 h, time 10 day
# [23] = system: Mycobacterium tuberculosis; test: Potency index, ratio of ethambutol MIC to test compound MIC for antitubercular activity against Mycobacterium tuberculosis H37Rv assessed as bacterial growth inhibition; assay type: functional
# [24] = system: Mycobacterium tuberculosis; test: Antitubercular activity against Mycobacterium tuberculosis H37Rv ATCC 27294 assessed as bacterial growth inhibition measured after 9 days by twofold agar dilution method; assay type: functional; details: H37Rv ATCC 27294, 216 h, time 9 day
# [25] = system: Mycobacterium tuberculosis; test: Antitubercular activity against Mycobacterium tuberculosis mc 2 7000 assessed as bacterial growth inhibition; assay type: functional
# [26] = system: Mycobacterium tuberculosis; test: Antitubercular activity against Mycobacterium tuberculosis H37Rv assessed as bacterial growth inhibition measured after 5 days by MABA method; assay type: functional; details: 120 h, time 5 day
# [27] = system: Mycobacterium tuberculosis; test: Antitubercular activity against Mycobacterium tuberculosis H37Rv ATCC 27294 assessed as bacterial growth inhibition measured after 7 days by MABA method; assay type: functional; details: H37Rv ATCC 27294, 168 h, time 7 day
# [28] = system: Mycobacterium tuberculosis; test: Antitubercular activity against Mycobacterium tuberculosis H37Rv ATCC 27294 assessed as bacterial growth inhibition measured after 5 days by MABA method; assay type: functional; details: H37Rv ATCC 27294, 120 h, time 5 day
# [29] = system: Mycobacterium tuberculosis; test: Antitubercular activity against Mycobacterium tuberculosis H37Rv assessed as bacterial growth inhibition measured after 7 days by direct susceptibility assay; assay type: functional; details: 168 h, time 7 day
# [30] = system: Mycobacterium tuberculosis; test: Antitubercular activity against Mycobacterium tuberculosis H37Rv assessed as reduction in relative light units at 2 ug/ml incubated for 4 hrs followed by addition of D-luciferin by luciferase based luminometer analysis relative to control; assay type: functional; set-up: scale not given: the % may be the effect or the level left; details: dose 2 µg/ml
# [31] = system: Mycobacterium tuberculosis; test: Antitubercular activity against Mycobacterium tuberculosis H37Rv assessed as bacterial growth inhibition measured after 24 hrs by agar micro dilution method; assay type: functional
smiles,measurement,setting,value
CC(C)=CCC/C(C)=C/COc1ccc(/C=C/c2nnc3c4ccccc4cnn23)cc1,MIC,[1],0.5 µg/mL
O=[N+]([O-])c1ncn(CCCCNS(=O)(=O)c2ccc(Cl)s2)n1,MIC,[2],3.13 µM
O=[N+]([O-])c1ncn(CCCCNS(=O)(=O)c2cc(Cl)c(Cl)s2)n1,MIC,[2],1.56 µM
C[C@]1(COc2ccc(-n3cc(COc4ccc(OC(F)(F)F)cc4)nn3)cc2)Cn2cc([N+](=O)[O-])nc2O1,MIC,[3],0.23 µM
COc1ccc(-n2cc(Cn3nc(-c4ccccc4)c4c3CCN(C(=O)Nc3ccccc3)C4)nn2)cc1,MIC,[4],24.7 µM
same,MIC,[5],24.7 µM
same,MIC,[6],24.7 µM
O=C1CC2CN(c3ccc(N4C[C@H](Cn5ccnn5)OC4=O)cc3F)CC2C1 (stereo partly specified),MIC,[7],0.5 µg/mL
O=C1Nc2ccccc2/C1=N\OCc1cn(Cc2ccc(Cl)cc2)nn1,MIC,[8],1.56 µg/mL
CC1(C)OC2C3OC(C)(C)O[C@H]3C(Cn3cc(N4C(=O)CCCC4=O)nn3)O[C@@H]2O1 (stereo partly specified),MIC,[9],3.12 µg/mL
Nc1ccc(-c2n[nH]c(=S)[nH]2)cc1,MIC,[10],0.46 µg/mL
same,MIC,[11],> 30 µg/mL
O=C1Nc2ccccc2/C1=N\OCc1cn(Cc2ccc(F)cc2)nn1,MIC,[8],0.78 µg/mL
CCCCCCc1cn(CCCC2C3CC4CC(C3)CC2C4)nn1.Cl (stereo unspecified),MIC,[8],6.2 µg/mL
c1ccc(-c2cn(Cc3ccc4ccccc4n3)nn2)cc1,Activity,[12],58.2%
same,Activity,[13],80.79%
Cc1nc2ccccc2n2c(-c3ccc([N+](=O)[O-])cc3)nnc12,Activity,[14],2%
COc1ccc(-c2nnc3c(C)nc4ccccc4n23)cc1,Activity,[14],2%
CCOC(=O)c1c(-n2cc(-c3ccc4cc(OC)ccc4c3)nn2)c2ccccc2n(C)c1=O,MIC,[15],3.13 µg/mL
O=C(N/N=C/c1cc(Cl)cc(Cl)c1OCc1cn(-c2ccccc2Cl)nn1)c1ccncc1,MIC,[8],1.56 µg/mL
O=C1Nc2ccccc2/C1=N\OCc1cn(Cc2cccc(C(F)(F)F)c2)nn1,MIC,[8],3.12 µg/mL
COc1c(N2CCN(C(=O)Cn3cc(CN4C(=O)C(=O)c5cc(C)ccc54)nn3)C(C)C2)c(F)cc2c(=O)c(C(=O)O)cn(C3CC3)c12 (stereo unspecified),MIC,[16],1 µg/mL
same,CC50,[17],64 µg/mL
Cc1nc2ccccc2n2c(-c3ccc(Cl)cc3)nnc12,Activity,[14],2%
O=[N+]([O-])c1ccc(-c2n[nH]c(=S)[nH]2)cc1,MIC,[10],0.64 µg/mL
same,MIC,[11],9.05 µg/mL
Brc1ccc(/C=C/c2nnc3c4ccccc4cnn23)cc1,MIC,[1],0.5 µg/mL
CCCCCc1ccc(-c2cn(-c3c(C(=O)OCC)c(=O)n(C)c4ccccc34)nn2)cc1,MIC,[15],3.13 µg/mL
O=C1Nc2ccccc2/C1=N\OCc1cn(Cc2ccc(C(F)(F)F)cc2)nn1,MIC,[8],1.56 µg/mL
C#Cc1nnc2c3ccccc3cnn12,MIC,[1],0.5 µg/mL
COc1ccc2c(c1)/C(=N/NC(=O)c1ccncc1)C(=O)N2Cc1cn(-c2ccccc2/C=N\NC(=O)c2ccncc2)nn1,MIC99,[18],0.36 µg/mL
Cc1nc2ccccc2n2c(-c3cccc([N+](=O)[O-])c3)nnc12,Activity,[14],2%
CCCCCCCCCNC(=O)Cc1nnc2c3ccccc3cnn12,MIC,[1],0.5 µg/mL
COc1ccc2cc(-n3cc(COc4nc(-c5ccccn5)sc4C(N)=O)nn3)c(=O)oc2c1,MIC,[19],6.5 µM
same,IC50,[20],500 nM
same,IC50,[21],440 nM
CC1(C)OC2C3OC(C)(C)O[C@H]3C(Cn3cc(N4CCCC4=O)nn3)O[C@@H]2O1 (stereo partly specified),MIC,[9],3.12 µg/mL
CC1=CN([C@H]2C[C@H](O)[C@@H](Cn3nnc(C(=O)c4ccc(Cl)cc4)c3-c3ccc(C(C)(C)C)cc3)O2)C(=O)CC1=O,MIC,[22],2 µg/mL
CCOC(=O)c1c(-n2cc(-c3ccc(C)cc3)nn2)c2ccccc2n(C)c1=O,MIC,[15],3.13 µg/mL
O=C(N/N=C1\C(=O)N(Cc2ccc(Cl)cc2)c2ccccc21)c1ccc(-n2cc(-c3ccccc3)nn2)cc1O,MIC,[19],0.39 µg/mL
same,Ratio,[23],8
O=C(N/N=C\c1ccccc1-n1cc(CN2C(=O)/C(=N\NC(=O)c3ccncc3)c3cc(Cl)ccc32)nn1)c1ccncc1,MIC99,[18],0.36 µg/mL
CC1=CN([C@H]2C[C@H](O)[C@@H](Cn3nnc(C(=O)c4ccc(Br)cc4)c3-c3ccc([N+](=O)[O-])cc3)O2)C(=O)CC1=O,MIC,[22],2 µg/mL
CC1=CN([C@H]2C[C@H](O)[C@@H](Cn3nnc(C(=O)c4ccc(Cl)cc4)c3-c3ccc(F)cc3)O2)C(=O)CC1=O,MIC,[22],2 µg/mL
O=C(OCc1cn(CCCc2ccccc2)nn1)c1ccc(F)cc1,MIC,[24],3.75 µg/mL
O=C(OCc1cn(-c2ccccc2)nn1)c1c[n+]([O-])c2ccc(Cl)cc2[n+]1[O-],MIC,[25],30.4 µg/mL
same,MIC,[18],30.4 µg/mL
same,MIC,[8],30.4 µg/mL
CC1(C)OC2C3OC(C)(C)O[C@H]3C(Cn3cc(N4C(=O)CCC4=O)nn3)O[C@@H]2O1 (stereo partly specified),MIC,[9],3.12 µg/mL
COc1cccc(-c2nnc3c(C)nc4ccccc4n23)c1,Activity,[14],2%
Cc1nc2ccccc2n2c(-c3ccc(N(C)C)cc3)nnc12,Activity,[14],2%
CC(=O)OC[C@H]1O[C@@H](Oc2cn(Cc3ccc4ccccc4n3)nn2)[C@H](OC(C)=O)[C@@H](OC(C)=O)[C@H]1OC(C)=O,Activity,[12],76.41%
same,Activity,[13],78.37%
Cc1nc2ccccc2n2c(-c3ccccc3)nnc12,Activity,[14],2%
CC1=C(C(=O)O)N2C(=O)[C@@H](NC(=O)[C@H](N)c3ccccc3)[C@H]2SC1 [CEPHALEXIN ANHYDROUS],MIC,[25],72 µM
CC[C@@H](CO)NCCN[C@@H](CC)CO [ETHAMBUTOL],MIC,[26],1.56 µg/mL
same,MIC,[2],6.25 µM
same,MIC,[27],7.64 µM
same,MIC,[19],1.56 µg/mL
same,MIC,[28],7.63 µM
same,MIC,[1],1 µg/mL
CCc1cc(C(N)=S)ccn1 [ETHIONAMIDE],MIC,[25],90.4 µM
NNC(=O)c1ccncc1 [ISONIAZID],MIC,[29],0.075 µg/mL
same,MIC,[10],0.043 µg/mL
same,MIC,[28],0.7 µM
same,MIC,[11],0.074 µg/mL
same,MIC,[22],> 300 µg/mL
same,MIC,[25],2.92 µM
same,MIC,[1],0.05 µg/mL
CO[C@H]1/C=C/O[C@@]2(C)Oc3c(C)c(O)c4c(O)c(c(/C=N/N5CCN(C)CC5)c(O)c4c3C2=O)NC(=O)/C(C)=C\C=C\[C@H](C)[C@H](O)[C@@H](C)[C@@H](O)[C@@H](C)[C@H](OC(C)=O)[C@@H]1C [RIFAMPIN],MIC,[19],0.2 µg/mL
same,MIC,[29],0.043 µg/mL
same,MIC,[10],0.075 µg/mL
same,MIC,[11],0.074 µg/mL
same,Activity,[30],87%
same,MIC,[25],0.12 µM
CN[C@@H]1[C@H](O[C@H]2[C@H](O[C@H]3[C@H](O)[C@@H](O)[C@H](N=C(N)N)[C@@H](O)[C@@H]3N=C(N)N)O[C@@H](C)[C@]2(O)C=O)O[C@@H](CO)[C@H](O)[C@H]1O [STREPTOMYCIN],MIC,[31],3.12 µg/mL
same,MIC,[26],> 6.25 µg/mL
same,MIC,[28],6.25 µg/mL
same,MIC,[22],2 µg/mL
Cc1ccc(-c2nc3ccc(C)cn3c2CC(=O)N(C)C)cc1 [ZOLPIDEM],MIC,[3],10 µM
same,MIC,[28],3.12 µg/mL
